Results: patent US9630965B2, “Fused amino pyridine as HSP90 inhibitors” (Curis, Inc., priority 2007, dated 2017)

The molecules below were run against T1, HSP90 (Homo sapiens (Human), UniProt P07900) (assay: HSP90 competition binding (fluorescence polarization) assay with FITC labeled GM). Details: 24 hours of incubation at 4° C.
Source text: (b) HSP90 Competition Binding (Fluorescence Polarization) Assay.
A fluorescein isothiocyanate (FITC) labeled GM was purchase from InvivoGen (ant-fgl-1). The interaction between HSP90 and labeled GM forms the basis for the fluorescence polarization assay. A free and fast-tumbling FITC labeled GM emits random light with respect to the plane of polarization plane of excited light, resulting in a lower polarization degree (mP) value. When GM is bound to HSP90, the complex tumble slower and the emitted light is polarized, resulting in a higher mP value. […] The assay buffer contained 20 mM HEPES (pH 7.3), 50 mM KCl, 1 mM DTT, 50 mM MgCl2, 20 mM Na2MoO4, 0.01% NP40 with 0.1 mg/ml bovine gamma-globulin.

Compound | IC50
C#CCCCn1c(Sc2cc(OC)ccc2[N+](=O)[O-])nc2c(N)nccc21 [Compound 17, 2-(5-methoxy-2-nitrophenylthio)-1-(pent-4-ynyl)-1H-imidazo[4,5-c]pyridin-4-amine] | > 10 µM
CCCCCn1c(Sc2cc3c(cc2I)OCO3)nc2c(N)nccc21 [Compound 4, 2-(6-iodobenzo[d][1,3]dioxol-5-ylthio)-1-pentyl-1H-imidazo[4,5-c]pyridin-4-amine] | 0.1 to 1 µM
C#CCCCn1c(Sc2cc3c(cc2I)OCCO3)nc2c(N)nccc21 [Compound 7, 2-(7-iodo-2,3-dihydrobenzo[b][1,4]dioxin-6-ylthio)-1-(pent-4-ynyl)-1H-imidazo[4,5-c]pyridin-4-amine] | 0.1 to 1 µM
CC(C)NCCCn1c(Sc2cc3c(cc2Br)OCO3)nc2c(N)nccc21 [Compound 51, 2-(6-bromobenzo[d][1,3]dioxol-5-ylthio)-1-(3-(isopropylamino)propyl)-1H-imidazo[4,5-c]pyridin-4-amine] | 1 to 10 µM
C#CCCCn1c(Sc2cc(OC)ccc2C(C)=O)nc2c(N)nccc21 [Compound 19, 1-(2-(4-amino-1-(pent-4-ynyl)-1H-imidazo[4,5-c]pyridin-2-ylthio)-4-methoxyphenyl)ethanone] | 1 to 10 µM
COc1ccc(I)c(Sc2nc3c(N)nccc3n2CCCC#N)c1 [Compound 26, 4-(4-amino-2-(2-iodo-5-methoxyphenylthio)-1H-imidazo[4,5-c]pyridin-1-yl)butanenitrile] | 1 to 10 µM
C#CCCCn1c(Sc2cc(OC)ccc2Br)nc2c(N)nccc21 [Compound 13, 2-(2-bromo-5-methoxyphenylthio)-1-(pent-4-ynyl)-1H-imidazo[4,5-c]pyridin-4-amine] | 1 to 10 µM
COc1ccc(I)c(Sc2nc3c(N)nccc3n2CCCNC(C)C)c1 [Compound 54, 2-(2-iodo-5-methoxyphenylthio)-1-(3-(isopropylamino)propyl)-1H-imidazo[4,5-c]pyridin-4-amine] | 1 to 10 µM
N#CCCCn1c(Sc2cc3c(cc2I)OCO3)nc2c(N)nccc21 [Compound 28, 4-(4-amino-2-(6-iodobenzo[d][1,3]dioxol-5-ylthio)-1H-imidazo[4,5-c]pyridin-1-yl)butanenitrile] | 0.1 to 1 µM
NC(=O)CCCCCn1c(Sc2cc3c(cc2I)OCO3)nc2c(N)nccc21 [Compound 70, 6-(4-amino-2-(6-iodobenzo[d][1,3]dioxol-5-ylthio)-1H-imidazo[4,5-c]pyridin-1-yl)hexanamide] | 0.1 to 1 µM
C#CCCn1c(Sc2cc3c(cc2Br)OCO3)nc2c(N)nccc21 [Compound 22, 2-(6-bromobenzo[d][1,3]dioxol-5-ylthio)-1-(but-3-ynyl)-1H-imidazo[4,5-c]pyridin-4-amine] | 1 to 10 µM
NC(=O)CCCCn1c(Sc2cc3c(cc2I)OCO3)nc2c(N)nccc21 [Compound 68, 5-(4-amino-2-(6-iodobenzo[d][1,3]dioxol-5-ylthio)-1H-imidazo[4,5-c]pyridin-1-yl)pentanamide] | 0.1 to 1 µM
C#CCCCn1c(Sc2cc(F)c(F)cc2I)nc2c(N)nccc21 [Compound 21, 2-(4,5-difluoro-2-iodophenylthio)-1-(pent-4-ynyl)-1H-imidazo[4,5-c]pyridin-4-amine] | > 10 µM
CC(C)NCCCn1c(Sc2cc3c(cc2I)OCO3)nc2c(N)nccc21 [Compound 52, 2-(6-iodobenzo[d][1,3]dioxol-5-ylthio)-1-(3-(isopropylamino)propyl)-1H-imidazo[4,5-c]pyridin-4-amine] | 0.1 to 1 µM
CN(C)Cc1cc2c(cc1Sc1nc3c(N)nccc3n1CCNCC(C)(C)C)OCO2 [Compound 115, 2-(6-((dimethylamino)methyl)benzo[d][1,3]dioxol-5-ylthio)-1-(2-(neopentylamino)ethyl)-1H-imidazo[4,5-c]pyridin-4-amine] | > 10 µM
N#CCCCn1c(Sc2cc3c(cc2Br)OCO3)nc2c(N)nccc21 [Compound 27, 4-(4-amino-2-(6-bromobenzo[d][1,3]dioxol-5-ylthio)-1H-imidazo[4,5-c]pyridin-1-yl)butanenitrile] | 1 to 10 µM
C#CCCCn1c(Sc2ccc3c(c2)CCO3)nc2c(N)nccc21 [Compound 9, 2-(2,3-dihydrobenzofuran-5-ylthio)-1-(pent-4-ynyl)-1H-imidazo[4,5-c]pyridin-4-amine] | > 10 µM

Compound | IC50
C#CCCCn1c(Sc2cc(O)c(O)cc2I)nc2c(N)nccc21 [Compound 16, 4-(4-amino-1-(pent-4-ynyl)-1H-imidazo[4,5-c]pyridin-2-ylthio)-5-iodobenzene-1,2-diol] | > 10 µM
C#CCCCCn1c(Sc2cc3c(cc2Br)OCO3)nc2c(N)nccc21 [Compound 24, 2-(6-bromobenzo[d][1,3]dioxol-5-ylthio)-1-(hex-5-ynyl)-1H-imidazo[4,5-c]pyridin-4-amine] | 1 to 10 µM
CCC(CC)NCCCn1c(Sc2cc3c(cc2I)OCO3)nc2c(N)nccc21 [Compound 60, 2-(6-iodobenzo[d][1,3]dioxol-5-ylthio)-1-(3-(pentan-3-ylamino)propyl)-1H-imidazo[4,5-c]pyridin-4-amine] | 0.1 to 1 µM
CC(C)(C)NCCCn1c(Sc2cc3c(cc2I)OCO3)nc2c(N)nccc21 [Compound 58, 1-(3-(tert-butylamino)propyl)-2-(6-iodobenzo[d][1,3]dioxol-5-ylthio)-1H-imidazo[4,5-c]pyridin-4-amine] | 0.1 to 1 µM
C#CCCCn1c(Sc2cc(OC)ccc2C#N)nc2c(N)nccc21 [Compound 18, 2-(4-amino-1-(pent-4-ynyl)-1H-imidazo[4,5-c]pyridin-2-ylthio)-4-methoxybenzonitrile] | 1 to 10 µM
CC(=O)NCCn1c(Sc2cc3c(cc2I)OCO3)nc2c(N)nccc21 [Compound 72, N-(2-(4-amino-2-(6-iodobenzo[d][1,3]dioxol-5-ylthio)-1H-imidazo[4,5-c]pyridin-1-yl)ethyl)acetamide] | 0.1 to 1 µM
CC(=O)NCCCn1c(Sc2cc3c(cc2I)OCO3)nc2c(N)nccc21 [Compound 74, N-(3-(4-amino-2-(6-iodobenzo[d][1,3]dioxol-5-ylthio)-1H-imidazo[4,5-c]pyridin-1-yl)propyl)acetamide] | 0.1 to 1 µM
N#CCCCCn1c(Sc2cc3c(cc2Br)OCO3)nc2c(N)nccc21 [Compound 29, 5-(4-amino-2-(6-bromobenzo[d][1,3]dioxol-5-ylthio)-1H-imidazo[4,5-c]pyridin-1-yl)pentanenitrile] | 1 to 10 µM
CC(C)OCCn1c(Sc2cc3c(cc2I)OCO3)nc2c(N)nccc21 [Compound 62, 2-(6-iodobenzo[d][1,3]dioxol-5-ylthio)-1-(2-isopropoxyethyl)-1H-imidazo[4,5-c]pyridin-4-amine] | 0.1 to 1 µM
C#CCCCCn1c(Sc2cc3c(cc2I)OCO3)nc2c(N)nccc21 [Compound 25, 1-(hex-5-ynyl)-2-(6-iodobenzo[d][1,3]dioxol-5-ylthio)-1H-imidazo[4,5-c]pyridin-4-amine] | 0.1 to 1 µM
C#CCCn1c(Sc2cc3c(cc2I)OCO3)nc2c(N)nccc21 [Compound 23, 1-(but-3-ynyl)-2-(6-iodobenzo[d][1,3]dioxol-5-ylthio)-1H-imidazo[4,5-c]pyridin-4-amine] | 0.1 to 1 µM
NC(=O)CCCn1c(Sc2cc3c(cc2I)OCO3)nc2c(N)nccc21 [Compound 66, 4-(4-amino-2-(6-iodobenzo[d][1,3]dioxol-5-ylthio)-1H-imidazo[4,5-c]pyridin-1-yl)butanamide] | 0.1 to 1 µM
COc1ccc(I)c(Sc2nc3c(N)nccc3n2CCOC(C)C)c1 [Compound 64, 2-(2-iodo-5-methoxyphenylthio)-1-(2-isopropoxyethyl)-1H-imidazo[4,5-c]pyridin-4-amine] | 1 to 10 µM
CC(C)OCCn1c(Sc2cc3c(cc2Br)OCO3)nc2c(N)nccc21 [Compound 61, 2-(6-bromobenzo[d][1,3]dioxol-5-ylthio)-1-(2-isopropoxyethyl)-1H-imidazo[4,5-c]pyridin-4-amine] | 0.1 to 1 µM
COc1ccc(Br)c(Sc2nc3c(N)nccc3n2CCCNC(C)C)c1 [Compound 53, 2-(2-bromo-5-methoxyphenylthio)-1-(3-(isopropylamino)propyl)-1H-imidazo[4,5-c]pyridin-4-amine] | 1 to 10 µM
CC(=O)NCCCCn1c(Sc2cc3c(cc2I)OCO3)nc2c(N)nccc21 [Compound 76, N-(4-(4-amino-2-(6-iodobenzo[d][1,3]dioxol-5-ylthio)-1H-imidazo[4,5-c]pyridin-1-yl)butyl)acetamide] | 0.1 to 1 µM
N#CCCCCn1c(Sc2cc3c(cc2I)OCO3)nc2c(N)nccc21 [Compound 30, 5-(4-amino-2-(6-iodobenzo[d][1,3]dioxol-5-ylthio)-1H-imidazo[4,5-c]pyridin-1-yl)pentanenitrile] | 0.1 to 1 µM

These molecules were tested against T1, HSP90 (assay: Hsp90 chaperone assay (refolding of heat-denatured luciferase)). Details: not given.
Assay type: biochemical
Experimental: (a) An In Vitro Assay which Determines the Ability of a Test Compound to Inhibit Hsp90 Chaperone Activity.
The Hsp90 chaperone assay was performed to measure the ability of HSP90 protein to refold the heat-denatured luciferase protein. HSP90 was first incubated with different concentrations of test compounds in denaturation buffer (25 mM Tris, pH7.5, 8 mM MgSO4, 0.01% bovine gamma globulin and 10% glycerol) at room temperature for 30 min. Luciferase protein was added to denaturation mix and incubated at 50° C. for 8 min. The final concentration of HSP90 and luciferase in denaturation mixture were 0.375 μM and 0.125 μM respectively. A 5 μl sample of the denatured mix was diluted into 25 μl of renaturation buffer (25 mM Tris, pH7.5, 8 mM MgSO4, 0.01% bovine gamma globulin and 10% glycerol, 0.5 mM ATP, 2 mM DTT, 5 mM KCl, 0.3 μM HSP70 and 0.15 μM HSP40). The renaturation reaction was incubated at room temperature for 150 min, followed by dilution of 10 μl of the renatured sample into 90 μl of luciferin reagent (Luclite, PerkinElmer Life Science). The mixture was incubated at dark for 5 min before reading the luminescence signal on a TopCount plate reader (PerkinElmer Life Science).

Compound | IC50
C#CCCCn1c(Sc2cc(OC)ccc2[N+](=O)[O-])nc2c(N)nccc21 [Compound 17, 2-(5-methoxy-2-nitrophenylthio)-1-(pent-4-ynyl)-1H-imidazo[4,5-c]pyridin-4-amine] | ≥ 10 µM
C#CCCCn1c(Sc2cc(OC)ccc2C(C)=O)nc2c(N)nccc21 [Compound 19, 1-(2-(4-amino-1-(pent-4-ynyl)-1H-imidazo[4,5-c]pyridin-2-ylthio)-4-methoxyphenyl)ethanone] | 1 to 10 µM
C#CCCCn1c(Sc2cc(OC)ccc2Br)nc2c(N)nccc21 [Compound 13, 2-(2-bromo-5-methoxyphenylthio)-1-(pent-4-ynyl)-1H-imidazo[4,5-c]pyridin-4-amine] | 1 to 10 µM
